Reference: publication PMC3791872 (Bioscience Reports, 2013)

Columns and labels:
Mcm2-7 [1] = system: T1, Mcm2-7; assay: Mcm2-7 helicase (DNA unwinding) assay; assay type: biochemical, Saccharomyces cerevisiae; conditions: for IC50: DNA unwinding, 100 nM hexamer, inhibitor preincubation, value (95% CI), read-out: IC50 Mcm2-7
T1 construct: made in house; host or cells: baculovirus-infected insect cells

Mcm467 [2] = molecular target: T2, Mcm467 (Saccharomyces cerevisiae, UniProt P30665+P38132+P53091); assay: Mcm467 helicase (DNA unwinding) assay; assay type: biochemical; conditions: for IC50: DNA unwinding, 100 nM hexamer, inhibitor preincubation, value (95% CI), read-out: IC50 Mcm467
T2 construct: made in house; host or cells: baculovirus-infected insect cells

[3] = molecular target: SV40 large TAg (T-antigen) (Simian virus 40, UniProt P03070); assay: biochemical; parameters: species or system SV40 (simian virus 40); conditions: for IC50: DNA unwinding, 100 nM hexamer, inhibitor preincubation, read-out: IC50 T-antigen
[4] = system: S. cerevisiae ∆erg6 (UPY675); assay: Yeast growth inhibition, 96-well assay, ∆erg6 strain; assay type: cell-based, Saccharomyces cerevisiae; conditions: Saccharomyces cerevisiae; ∆erg6 strain, growth over 24 h; value (95% CI); read-out: IC50 Yeast
Mcm2-7 [5] = system: T1, Mcm2-7; assay: Steady-state ATP hydrolysis by Mcm2-7; assay type: biochemical, Saccharomyces cerevisiae; conditions: 1 mM compound, 100 nM hexamer
Mcm467 [6] = molecular target: T2, Mcm467; assay: Steady-state ATP hydrolysis by Mcm467; assay type: biochemical; conditions: 1 mM compound, 100 nM hexamer
SV40 large TAg = molecular target: T3, SV40 large TAg (Simian virus 40, UniProt P03070); assay: Steady-state ATP hydrolysis by TAg; assay type: biochemical, SV40 (simian virus 40); conditions: 1 mM compound, 100 nM hexamer
T3 construct: made in house

pUC19 = assay: DNA intercalation assay (Topo I-relaxed plasmid); assay type: biochemical
Excerpt: To examine this model, we tested our inhibitors in a standard topoisomerase assay. The rationale of this assay is that intercalating compounds will introduce supercoils into a fully relaxed plasmid. Topo I will remove these introduced supercoils, but after quenching and gel electrophoresis the intercalator will diffuse away and produce a detectable compensatory supercoiling increase.

DnaB = DnaB (Escherichia coli, UniProt P0ACB0); assay: DnaB helicase assay; assay type: biochemical; conditions: 1 mM, Figure S3
Method: (§1) Helicase assays were performed essentially as described. Synthetic replication forks were prepared by annealing oligos 233 and 235 [IDT (Coralville), oligo 233 5′(T)40[…]; oligo 235 5′ […](T)40] and then filling in the recessed 3′-end with [α32P]dATP and unlabelled dNTPs using Klenow Fragment. Briefly, reactions ([…]) were performed in 1× helicase assay buffer [20 mM Tris/HCl (pH 7.5), 10 mM MgOAc, 20% (v/v) glycerol, 100 μM EDTA and 5 mM DTT (dithiothreitol)] and contained a final concentration of 1 nM fork substrate, 5 mM ATP, 40 mM creatine phosphate, […] creatine kinase, 33 μg/ml BSA. Reactions containing Mcm2-7 and Mcm467 were supplemented with 200 mM potassium glutamate. Reactions containing SsoMcm were incubated at 65°C, those containing T4 gp41 were incubated for 30 min at 37°C, and all other reactions were incubated at 37°C for 1 h. The products were separated by 10% (w/v) native PAGE, the resulting gels dried and the radioactivity quantified using a Fuji FLA-5100 phosphoimager. Irrespective of the protein used, all helicase assays contained equal molar helicase concentrations (100 nM, assuming in all cases that the active helicase form is hexameric). Steady-state ATP hydrolysis was assayed as published. In short, reactions were set up essentially as in the helicase assay, with minor exceptions. A non-radiolabelled DNA fork was used, helicase concentration was 100 nM (hexamer) the total ATP concentration was 500 μM and included ~0.5 μCi of [α32P]ATP, and the ATP regeneration system was omitted. Reactions were incubated for 1 h at 37°C and stopped by the addition of SDS. ATP was separated from ADP by PEI (polyethyleneimine) thin layer chromatography, and the ratio of ATP:ADP was quantified using a Fuji FLA-5100 phosphoimager. Based on our prior work, conditions were established to ensure that the results shown are within the linear range of the assay. Protein–ssDNA binding was determined with a double filter-binding assay using an ssDNA probe (oligo 826, 5′[…]) that was 5′-radiolabelled using T4 polynucleotide kinase and [γ32P]ATP [16]. For the double filter-binding assay, the helicase concentration was 150 nM (hexamer) and the ssDNA concentration was 4 nM. For all biochemical assays, helicases were preincubated with inhibitors for 20 min at 37°C unless otherwise indicated. […]
(§2) against different helicases
(§3) Representative helicase activity assays in the presence of the indicated inhibitor were tested, quantiﬁed and standardized as described in the legend to F igures 2 (A) and (B). All helicases were assayed at 100 nM
(§4) ﬁnal concentration (hexamer) with inhibitor preincubation prior to ATP […]
(§5) F igure S3 Ciproﬂoxacin poor ly inhibits hexameric helicases un- […]
(§6) All inhibitors were used at 1 mM ﬁnal concentration. […]

T4 gp41 = molecular target: T4, T4 gp41 (Enterobacteria phage T4, UniProt P04530); assay: T4 gp41 helicase assay; assay type: biochemical; conditions: 1 mM, Figure S3
T4 sequence (P04530 1-475): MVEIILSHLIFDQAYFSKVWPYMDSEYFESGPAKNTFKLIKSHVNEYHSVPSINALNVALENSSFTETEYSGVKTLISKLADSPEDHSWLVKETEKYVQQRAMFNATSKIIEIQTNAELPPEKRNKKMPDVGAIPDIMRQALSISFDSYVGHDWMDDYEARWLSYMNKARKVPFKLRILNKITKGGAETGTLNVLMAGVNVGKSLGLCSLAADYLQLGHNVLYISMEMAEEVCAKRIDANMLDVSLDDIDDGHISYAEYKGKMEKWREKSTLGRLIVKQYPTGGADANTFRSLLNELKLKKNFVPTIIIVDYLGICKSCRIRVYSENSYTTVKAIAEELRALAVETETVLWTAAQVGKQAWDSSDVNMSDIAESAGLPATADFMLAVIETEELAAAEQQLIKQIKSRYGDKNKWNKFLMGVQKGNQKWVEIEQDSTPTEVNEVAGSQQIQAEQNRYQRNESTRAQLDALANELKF
Method: as §1, §2, §3, §4, §5, §6

RPE-hTERT cells = assay: Human cell viability, MTS method; assay type: cell-based; conditions: 48 h, value (95% CI)
Method: Ciproﬂoxacin is an inhibitor of the Mcm2-7 […]
The viability of human cells was assayed using the MTS method
[1]. Brieﬂy, 1 ×10^5 cells of the human non-tumour cell line RPE-hTERT were plated into each well of a 96-well plate and grown in DMEM: F12 containing 10 % (v/v) FBS in 5 % (v/v) CO2 at 37 ◦ C. The next day, the indicated compounds were titrated into media such that the ﬁnal concentration contained 1 % (v/v)
DMSO. As a negative control, media were also prepared that contained 1 % DMSO but lacked compound. After 48 h, the media was removed and replaced with DMEM lacking phenol red but containing Cell Titer 96 Aqueous One Solution Cell Proliferation
Assay (Promega). After 1 h, the A490 nm was measured using a BioRad iMark Microplate Reader (Hercules). Final data reﬂect the average and standard deviation (S.D.) of three replicates at each compound concentration. […]

[7] = molecular target: T5, SsoMcm (Sulfolobus solfataricus Mcm protein) complex (Saccharolobus solfataricus, UniProt Q9UXG1); assay: SsoMcm helicase assay; assay type: biochemical; conditions: 1 mM, 65°C, Figure S3
T5 sequence (Q9UXG1 1-686): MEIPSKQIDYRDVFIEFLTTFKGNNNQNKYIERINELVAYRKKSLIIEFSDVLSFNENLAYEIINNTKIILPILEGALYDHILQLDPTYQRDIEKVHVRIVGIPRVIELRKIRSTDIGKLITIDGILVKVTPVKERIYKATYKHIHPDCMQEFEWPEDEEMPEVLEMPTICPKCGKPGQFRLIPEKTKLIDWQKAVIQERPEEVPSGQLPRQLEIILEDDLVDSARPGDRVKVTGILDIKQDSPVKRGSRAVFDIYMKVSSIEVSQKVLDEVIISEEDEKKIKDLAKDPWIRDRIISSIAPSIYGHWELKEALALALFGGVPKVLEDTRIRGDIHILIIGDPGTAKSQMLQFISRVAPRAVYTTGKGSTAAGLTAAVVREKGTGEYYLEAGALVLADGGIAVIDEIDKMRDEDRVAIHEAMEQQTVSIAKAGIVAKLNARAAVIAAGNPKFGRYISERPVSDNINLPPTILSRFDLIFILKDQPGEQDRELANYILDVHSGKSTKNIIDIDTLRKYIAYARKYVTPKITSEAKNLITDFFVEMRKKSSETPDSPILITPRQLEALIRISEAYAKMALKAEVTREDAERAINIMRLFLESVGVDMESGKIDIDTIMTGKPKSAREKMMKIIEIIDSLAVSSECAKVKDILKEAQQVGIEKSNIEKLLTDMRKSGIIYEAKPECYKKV
Method: Helicase assays were performed essentially as described. Synthetic replication forks were prepared by annealing oligos 233 and 235 [IDT (Coralville), oligo 233 5′(T)40[…]; oligo 235 5′ […](T)40] and then filling in the recessed 3′-end with [α32P]dATP and unlabelled dNTPs using Klenow Fragment. Briefly, reactions ([…]) were performed in 1× helicase assay buffer [20 mM Tris/HCl (pH 7.5), 10 mM MgOAc, 20% (v/v) glycerol, 100 μM EDTA and 5 mM DTT (dithiothreitol)] and contained a final concentration of 1 nM fork substrate, 5 mM ATP, 40 mM creatine phosphate, […] creatine kinase, 33 μg/ml BSA. Reactions containing Mcm2-7 and Mcm467 were supplemented with 200 mM potassium glutamate. Reactions containing SsoMcm were incubated at 65°C, those containing T4 gp41 were incubated for 30 min at 37°C, and all other reactions were incubated at 37°C for 1 h. The products were separated by 10% (w/v) native PAGE, the resulting gels dried and the radioactivity quantified using a Fuji FLA-5100 phosphoimager. […] ATP was separated from ADP by PEI (polyethyleneimine) thin layer chromatography, and the ratio of ATP:ADP was quantified using a Fuji FLA-5100 phosphoimager. […] Protein–ssDNA binding was determined with a double filter-binding assay using an ssDNA probe (oligo 826, 5′[…]) that was 5′-radiolabelled using T4 polynucleotide kinase and [γ32P]ATP [16]. […]

[8] = any concentration tested, results not shown
[9] = 1 mM inhibitor added after plasmid relaxation (Figure 3C)

T2 sequence (P30665 whole entry): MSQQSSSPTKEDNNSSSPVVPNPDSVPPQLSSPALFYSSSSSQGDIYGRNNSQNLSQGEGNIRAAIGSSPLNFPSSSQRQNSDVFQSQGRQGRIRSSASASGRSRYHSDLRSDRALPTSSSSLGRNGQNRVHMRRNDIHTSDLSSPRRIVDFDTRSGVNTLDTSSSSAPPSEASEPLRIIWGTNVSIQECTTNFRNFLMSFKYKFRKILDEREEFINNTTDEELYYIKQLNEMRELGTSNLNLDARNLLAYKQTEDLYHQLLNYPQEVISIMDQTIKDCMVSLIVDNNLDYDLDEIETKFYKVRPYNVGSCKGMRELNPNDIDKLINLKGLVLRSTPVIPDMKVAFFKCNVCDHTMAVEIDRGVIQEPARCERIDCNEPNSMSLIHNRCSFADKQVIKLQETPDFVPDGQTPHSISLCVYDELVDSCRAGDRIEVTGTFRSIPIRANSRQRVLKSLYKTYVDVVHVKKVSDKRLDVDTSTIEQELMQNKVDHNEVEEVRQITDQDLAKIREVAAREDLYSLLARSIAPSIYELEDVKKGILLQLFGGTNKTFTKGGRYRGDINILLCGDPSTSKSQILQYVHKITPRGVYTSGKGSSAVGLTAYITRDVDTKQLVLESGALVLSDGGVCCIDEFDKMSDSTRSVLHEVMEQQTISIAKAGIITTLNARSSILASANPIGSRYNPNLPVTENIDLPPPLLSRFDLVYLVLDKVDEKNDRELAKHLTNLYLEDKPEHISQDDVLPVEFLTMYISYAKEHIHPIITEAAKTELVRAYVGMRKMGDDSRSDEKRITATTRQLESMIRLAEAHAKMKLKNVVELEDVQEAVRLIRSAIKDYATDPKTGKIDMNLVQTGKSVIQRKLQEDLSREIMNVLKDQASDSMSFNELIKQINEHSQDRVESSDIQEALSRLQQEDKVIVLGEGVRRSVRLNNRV
T2 sequence (P53091 whole entry): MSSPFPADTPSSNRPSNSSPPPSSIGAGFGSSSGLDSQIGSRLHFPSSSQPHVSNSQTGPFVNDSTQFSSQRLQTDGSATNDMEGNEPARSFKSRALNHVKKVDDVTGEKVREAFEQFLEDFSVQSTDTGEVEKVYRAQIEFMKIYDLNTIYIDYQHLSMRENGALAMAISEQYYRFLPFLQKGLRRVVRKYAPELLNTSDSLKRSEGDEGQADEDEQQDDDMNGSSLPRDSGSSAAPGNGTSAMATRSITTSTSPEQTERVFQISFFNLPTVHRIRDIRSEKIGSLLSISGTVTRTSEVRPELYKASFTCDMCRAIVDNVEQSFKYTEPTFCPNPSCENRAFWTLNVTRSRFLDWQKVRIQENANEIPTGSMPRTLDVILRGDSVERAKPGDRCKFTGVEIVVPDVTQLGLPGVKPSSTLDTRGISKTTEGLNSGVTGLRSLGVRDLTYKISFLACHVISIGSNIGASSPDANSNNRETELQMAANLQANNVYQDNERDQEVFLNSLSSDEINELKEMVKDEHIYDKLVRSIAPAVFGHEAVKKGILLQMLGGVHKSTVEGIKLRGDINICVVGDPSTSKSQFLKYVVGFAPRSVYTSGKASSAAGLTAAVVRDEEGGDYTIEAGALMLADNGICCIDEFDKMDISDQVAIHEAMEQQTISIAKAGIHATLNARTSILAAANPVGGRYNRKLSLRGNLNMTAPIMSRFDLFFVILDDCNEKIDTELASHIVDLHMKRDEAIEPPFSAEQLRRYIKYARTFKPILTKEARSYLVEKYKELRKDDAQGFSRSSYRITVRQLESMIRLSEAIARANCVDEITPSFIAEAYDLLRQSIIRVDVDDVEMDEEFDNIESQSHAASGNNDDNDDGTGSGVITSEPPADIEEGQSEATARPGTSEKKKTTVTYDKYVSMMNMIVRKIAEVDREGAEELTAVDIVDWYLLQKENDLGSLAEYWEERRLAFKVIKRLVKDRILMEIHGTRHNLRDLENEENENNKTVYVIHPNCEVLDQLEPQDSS
T2 sequence (P38132 whole entry): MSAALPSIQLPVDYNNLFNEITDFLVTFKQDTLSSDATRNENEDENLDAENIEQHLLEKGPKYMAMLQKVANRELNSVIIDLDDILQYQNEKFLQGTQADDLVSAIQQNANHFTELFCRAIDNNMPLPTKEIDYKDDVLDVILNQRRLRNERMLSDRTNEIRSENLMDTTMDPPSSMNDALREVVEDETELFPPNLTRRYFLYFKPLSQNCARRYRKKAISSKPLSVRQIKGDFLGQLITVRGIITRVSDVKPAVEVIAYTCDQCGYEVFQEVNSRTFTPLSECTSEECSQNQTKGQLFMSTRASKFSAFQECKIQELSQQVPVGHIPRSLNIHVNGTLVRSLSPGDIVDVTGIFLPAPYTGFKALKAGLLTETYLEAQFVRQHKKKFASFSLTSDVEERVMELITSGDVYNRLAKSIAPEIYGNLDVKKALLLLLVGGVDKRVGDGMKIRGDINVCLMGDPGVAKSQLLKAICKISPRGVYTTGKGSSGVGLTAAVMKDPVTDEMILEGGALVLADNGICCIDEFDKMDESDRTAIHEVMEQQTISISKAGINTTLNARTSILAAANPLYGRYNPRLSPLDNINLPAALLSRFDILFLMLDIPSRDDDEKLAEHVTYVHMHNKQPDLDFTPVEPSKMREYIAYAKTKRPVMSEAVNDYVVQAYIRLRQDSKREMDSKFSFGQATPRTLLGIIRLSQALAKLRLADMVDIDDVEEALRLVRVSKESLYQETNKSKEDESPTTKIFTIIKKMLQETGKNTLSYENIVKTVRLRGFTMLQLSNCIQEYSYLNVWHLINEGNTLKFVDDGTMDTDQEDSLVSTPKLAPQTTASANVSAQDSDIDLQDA
Chain of SV40 large TAg (T-antigen) (P03070 whole entry, looked up): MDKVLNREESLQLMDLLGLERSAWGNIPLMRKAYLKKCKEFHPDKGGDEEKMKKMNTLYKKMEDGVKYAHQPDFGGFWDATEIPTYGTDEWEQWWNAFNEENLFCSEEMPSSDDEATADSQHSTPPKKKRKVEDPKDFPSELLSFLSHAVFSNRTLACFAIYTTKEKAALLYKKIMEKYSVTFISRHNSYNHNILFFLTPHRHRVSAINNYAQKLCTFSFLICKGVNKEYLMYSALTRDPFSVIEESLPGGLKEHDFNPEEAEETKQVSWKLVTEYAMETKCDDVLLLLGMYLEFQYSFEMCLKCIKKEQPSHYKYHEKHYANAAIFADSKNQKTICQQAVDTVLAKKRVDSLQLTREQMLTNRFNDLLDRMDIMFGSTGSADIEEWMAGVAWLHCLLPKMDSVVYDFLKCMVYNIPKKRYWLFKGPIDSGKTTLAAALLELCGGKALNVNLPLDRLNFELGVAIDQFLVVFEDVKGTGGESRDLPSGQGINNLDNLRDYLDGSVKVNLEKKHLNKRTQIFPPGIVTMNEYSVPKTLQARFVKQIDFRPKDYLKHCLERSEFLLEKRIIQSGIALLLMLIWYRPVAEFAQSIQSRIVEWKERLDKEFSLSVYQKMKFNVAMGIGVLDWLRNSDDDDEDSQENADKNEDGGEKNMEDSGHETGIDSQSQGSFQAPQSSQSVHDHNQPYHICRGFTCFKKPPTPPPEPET
Chain of DnaB (P0ACB0 whole entry, the tested form may be a part): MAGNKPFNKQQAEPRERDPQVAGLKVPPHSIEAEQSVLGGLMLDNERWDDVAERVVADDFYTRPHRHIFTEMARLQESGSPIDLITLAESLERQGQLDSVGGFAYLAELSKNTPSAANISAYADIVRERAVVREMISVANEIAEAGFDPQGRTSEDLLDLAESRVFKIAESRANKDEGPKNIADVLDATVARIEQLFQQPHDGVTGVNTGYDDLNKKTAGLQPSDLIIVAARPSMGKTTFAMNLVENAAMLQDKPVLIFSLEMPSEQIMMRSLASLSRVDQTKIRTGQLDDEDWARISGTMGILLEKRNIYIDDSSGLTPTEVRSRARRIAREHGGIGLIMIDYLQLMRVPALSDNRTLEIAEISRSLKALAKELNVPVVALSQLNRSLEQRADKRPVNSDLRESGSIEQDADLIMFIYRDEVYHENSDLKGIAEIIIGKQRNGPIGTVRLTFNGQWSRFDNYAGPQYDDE
T3 sequence (P03070 whole entry): as the sequence (P03070 whole entry, looked up) above

Compound	effect on Mcm2-7 helicase activity (Mcm2-7 [1]; [8])	effect on Mcm467 helicase activity (Mcm467 [2]; [8])	effect on TAg helicase activity [3, 8]	IC50 (Mcm2-7 [1])	IC50 (Mcm467 [2])	IC50 [3]	IC50 [4]	effect on ATP hydrolysis of Mcm2-7 (Mcm2-7 [5])	effect on ATP hydrolysis of Mcm467 (Mcm467 [6])	effect on ATP hydrolysis of TAg (SV40 large TAg)	DNA intercalation (pUC19; [9])	DNA intercalation (pUC19; inhibitor at 2- to 3-fold over calculated helicase IC50 (Figure 3E))	inhibition of DnaB helicase (DnaB)	inhibition of T4 gp41 helicase (T4 gp41)	IC50 (RPE-hTERT cells)	IC50 (RPE-hTERT cells; Homo sapiens)	inhibition of SsoMcm helicase [7]
CCn1cc(C(=O)O)c(=O)c2ccc(C)nc21 [naladixic acid, reference compound]	essentially no effect	essentially no effect	essentially no effect														
NC1CCN(c2ccc3c(=O)c(C(=O)O)cn(-c4ccc(O)cc4)c3c2Cl)C1 (stereo not drawn) [compound 268973]				188 µM	272 µM	476 µM	160 µM	modest inhibition	modest inhibition	modest inhibition	extensive DNA intercalation	significant DNA intercalation	nearly complete inhibition	nearly complete inhibition			
CSc1c(N2CCC(C(C)N)C2)ccc2c(=O)c(C(=O)O)cn(C3CC3)c12 (stereo not drawn) [compound 314850]				261 µM	707 µM	> 1000 µM	520 µM	essentially no inhibition	essentially no inhibition	essentially no inhibition	little or no intercalation				340 µM	500 to 700 µM	effectively inhibited
c1ccc(Nc2nc(Nc3ccccc3)nc(N3CCNCC3)n2)cc1 [compound 924384]				115 µM	246 µM	70 µM	93 µM				extensive DNA intercalation		nearly complete inhibition	nearly complete inhibition		~10 µM	
